Several values for one entry are separate records, joined by “and”; a condition that tells them apart may be missing. Equal values may be shown once. Read-outs that look alike come from different tables or passages of the source.
Legend:
human VR1 [1] = molecular target: T1, human VR1 (Homo sapiens, UniProt Q8NER1); assay: Human VR1 functional assay (intracellular Ca++, FLIPR, capsaicin challenge); assay type: cell-based
T1 construct: expressed in transfected cells; host or cells: HEK293
Description: The functional activity of the test compounds was determined by measuring changes in intracellular calcium concentration using a Ca^++-sensitive fluorescent dye and FLIPR™ technology.
EC50 or IC50 values were determined from dose-response studies.

human VR1 [2] = molecular target: T1, human VR1; assay: Human VR1 [3H] RTX binding assay; conditions: for Ki: hVR1; for inhibition at 1 µM: compound at 1 μM
Description: Compounds of the present invention were tested for their ability to inhibit the binding of [^3H] RTX to hVR1 receptors in a [^3H]
HEK293 cells were transfected with human VR1 vanilloid receptors and washed with Hank's Balanced Salt Solution, dissociated with cell dissociation buffer (Sigma), and then centrifuged at 1000×g for 5 min. […] The pelleted membranes were kept in an −80° C. freezer.
Approximately 120 μg protein/ml from membranes were incubated with indicated concentrations of [^3H] RTX in 0.5 ml of the HEPES buffer (pH 7.4) containing 0.25 mg/mL fatty acid-free bovine serum albumin at 37° C. for 60 min. […] The tip of the microcentrifuge tube containing the pellet was cut off. Bound radioactivity was quantified by scintillation counting. Non-specific binding was tested in the presence of 200 nM unlabeled RTX.

[3] = hVR1, capsaicin challenge, read-out: FLIPR functional assay IC50 hVR1
[4] = 3H-RTX binding, read-out: 3H-RTX binding assay Ki hVR1
[5] = FLIPR functional assay IC50 hVR1 60 min, 60 min
[6] = 3H-RTX binding assay Ki hVR1, 3H-RTX binding

T1 sequence (Q8NER1 whole entry): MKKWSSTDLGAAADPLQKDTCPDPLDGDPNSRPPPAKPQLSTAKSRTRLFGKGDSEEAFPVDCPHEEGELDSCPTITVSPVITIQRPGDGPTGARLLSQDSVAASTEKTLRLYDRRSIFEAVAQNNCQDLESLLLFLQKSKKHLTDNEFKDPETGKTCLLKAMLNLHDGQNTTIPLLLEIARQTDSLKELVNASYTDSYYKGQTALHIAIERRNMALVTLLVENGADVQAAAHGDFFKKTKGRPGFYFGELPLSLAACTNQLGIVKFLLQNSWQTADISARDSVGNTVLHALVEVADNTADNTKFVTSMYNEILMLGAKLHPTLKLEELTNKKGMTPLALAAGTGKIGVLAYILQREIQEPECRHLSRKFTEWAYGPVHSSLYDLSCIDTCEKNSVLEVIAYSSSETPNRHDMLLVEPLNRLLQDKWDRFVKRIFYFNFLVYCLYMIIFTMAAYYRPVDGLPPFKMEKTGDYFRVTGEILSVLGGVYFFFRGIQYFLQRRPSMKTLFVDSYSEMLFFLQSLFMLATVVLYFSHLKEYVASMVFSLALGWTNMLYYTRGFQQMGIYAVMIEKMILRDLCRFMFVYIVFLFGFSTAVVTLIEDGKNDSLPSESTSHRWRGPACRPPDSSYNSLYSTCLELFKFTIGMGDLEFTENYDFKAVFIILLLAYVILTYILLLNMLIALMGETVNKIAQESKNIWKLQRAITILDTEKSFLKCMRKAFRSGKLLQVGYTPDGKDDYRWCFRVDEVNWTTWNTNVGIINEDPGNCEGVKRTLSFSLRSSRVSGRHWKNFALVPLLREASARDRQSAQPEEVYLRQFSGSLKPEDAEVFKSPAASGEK

SMILES	IC50 (human VR1 [1]; [3])	Ki (human VR1 [2]; [4])	IC50 (human VR1 [1]; [5]) [nM]	inhibition at 1 µM (human VR1 [2]; 3H-RTX binding) [%]	Ki (human VR1 [2]; [6]) [nM]
CCCCC(C)c1ccc(C(=O)Nc2cnc3ccccc3c2)cc1 (stereo not shown)	1100 nM and 10000 nM	13.2 nM and 15 nM	–	–	–
CC(C)=CCC[C@H](C)CCN(C)c1ccc(C(=O)Nc2cnc3ccccc3c2)cc1	–	12.9 nM	150	105	–
O=C(Nc1cnc2ccccc2c1)c1ccc(N2CC[C@@H]3CCCC[C@@H]3C2)cc1 (relative stereo) [cis-4-(Octahydro-isoquinolin-2-yl)-N-quinolin-3-yl-benzamide]	185 nM	45.6 nM	220	105	–
O=C(Nc1cnc2ccccc2c1)c1ccc(N2CC[C@@H]3CCCC[C@@H]3C2)nc1 (relative stereo) [cis-6-(Octahydro-isoquinolin-2-yl)-N-quinolin-3-yl-nicotinamide]	420 nM	36.8 nM	–	99	–
O=C(Nc1cnc2ccccc2c1)c1ccc(N2CC[C@@H]3CCCC[C@H]3C2)nc1 (relative stereo) [trans-6-(Octahydro-isoquinolin-2-yl)-N-quinolin-3-yl-nicotinamide]	85 nM	33.2 nM	–	104	–
CC(=O)N1CCc2cc(C(=O)Nc3cnc4ccccc4c3)ccc21 [1-Acetyl-2,3-dihydro-1H-indole-5-carboxylic acid quinolin-3-ylamide]	3150 nM	–	–	1	–
O=C(Nc1cnc2ccccc2c1)c1ccc2c(c1)CCN2C(=O)c1ccccc1 [1-Benzoyl-2,3-dihydro-1H-indole-5-carboxylic acid quinolin-3-ylamide]	1450 nM	–	–	3	–
CCCC(=O)N1CCc2cc(C(=O)Nc3cnc4ccccc4c3)ccc21 [1-Butyryl-2,3-dihydro-1H-indole-5-carboxylic acid quinolin-3-ylamide]	1800 nM	–	–	2	–
O=C(Nc1cnc2ccccc2c1)c1ccc2c(c1)CCN2C(=O)C1CCCCC1 [1-Cyclohexanecarbonyl-2,3-dihydro-1H-indole-5-carboxylic acid quinolin-3-ylamide]	1500 nM	–	–	25	–
O=C(Nc1cnc2ccccc2c1)c1ccc2c(c1)CCN2C1CCCCC1 [1-Cyclohexyl-2,3-dihydro-1H-indole-5-carboxylic acid quinolin-3-ylamide]	44 nM	4.87 nM	74	103	–
CC(C)n1c(C(F)(F)F)nc2cc(C(=O)Nc3cnc4ccccc4c3)ccc21 [1-Isopropyl-2-trifluoromethyl-1H-benzoimidazole-5-carboxylic acid quinolin-3-ylamide]	8000 nM	364 nM	–	–	–
CN1CCCc2cc(C(=O)Nc3cnc4ccccc4c3)ccc21 [1-Methyl-1,2,3,4-tetrahydro-quinoline-6-carboxylic acid quinolin-3-ylamide]	690 nM	341 nM	–	79	–
CN1CCc2cc(C(=O)Nc3cnc4ccccc4c3)ccc21 [1-Methyl-2,3-dihydro-1H-indole-5-carboxylic acid quinolin-3-ylamide]	900 nM	–	–	12	–
CCCCCN1CCCc2cc(C(=O)Nc3cnc4ccccc4c3)ccc21 [1-Pentyl-1,2,3,4-tetrahydro-quinoline-6-carboxylic acid quinolin-3-ylamide]	1600 nM	–	470	93	39.1
CCCCCn1ccc2cc(C(=O)Nc3cnc4ccccc4c3)ccc21 [1-Pentyl-1H-indole-5-carboxylic acid quinolin-3-ylamide]	–	–	150	95	63.1
CCCN1CCc2cc(C(=O)Nc3cnc4ccccc4c3)ccc21 [1-Propyl-2,3-dihydro-1H-indole-5-carboxylic acid quinolin-3-ylamide]	410 nM	15.6 nM	–	93	–
O=C(Nc1cnc2ccccc2c1)c1ccc2c(c1)CCN2 [2,3-Dihydro-1H-indole-5-carboxylic acid quinolin-3-ylamide]	10500 nM	–	–	1	–
CCCCCNc1ccc(C(=O)Nc2cnc3ccccc3c2)c(Cl)c1 [2-Chloro-4-pentylamino-N-quinolin-3-yl-benzamide]	10000 nM	–	–	40	–

SMILES	IC50 (human VR1 [1]; [3])	Ki (human VR1 [2]; [4])	IC50 (human VR1 [1]; [5]) [nM]	inhibition at 1 µM (human VR1 [2]; 3H-RTX binding) [%]	Ki (human VR1 [2]; [6]) [nM]
CCCCCCCNc1ccccc1C(=O)Nc1cnc2ccccc2c1 [2-Heptylamino-N-quinolin-3-yl-benzamide]	1600 nM	1120 nM	5000	79	–
O=C(Nc1cnc2ccccc2c1)c1ccc(N2CCCCC2)nc1 [3,4,5,6-Tetrahydro-2H-{1,2′}bipyridinyl-5′-carboxylic acid quinolin-3-ylamide]	4300 nM	20.5 nM	140	–	–
O=C(CCc1ccc2c(c1)CCN2CC1CCCCC1)Nc1cnc2ccccc2c1 [3-(1-Cyclohexylmethyl-2,3-dihydro-1H-indol-5-yl)-N-quinolin-3-yl-propionamide]	1200 nM	512 nM	–	61	–
CCCn1ccc2cc(CCC(=O)Nc3cnc4ccccc4c3)ccc21 [3-(1-Propyl-1H-indol-5-yl)-N-quinolin-3-yl-propionamide]	480 nM	264 nM	–	59	–
CCCN1CCc2cc(CCC(=O)Nc3cnc4ccccc4c3)ccc21 [3-(1-Propyl-2,3-dihydro-1H-indol-5-yl)-N-quinolin-3-yl-propionamide]	1060 nM	1070 nM	–	51	–
O=C(CCc1ccc(CC2CCCCC2)cc1)Nc1cnc2ccccc2c1 [3-(4-Cyclohexylmethyl-phenyl)-N-quinolin-3-yl-propionamide]	670 nM	94.1 nM	35	–	–
CCCCCc1ccc(C=CC(=O)Nc2cnc3ccccc3c2)cc1 [3-(4-Pentyl-phenyl)-N-quinolin-3-yl-acrylamide]	–	428 nM	5200	–	–
CCCCCc1ccc(CCC(=O)Nc2cnc3ccccc3c2)cc1 [3-(4-Pentyl-phenyl)-N-quinolin-3-yl-propionamide]	–	181 nM	590	–	–
CCC(C)c1ccc(CCC(=O)Nc2cnc3ccccc3c2)cc1 (stereo not shown) [3-(4-sec-Butyl-phenyl)-N-quinolin-3-yl-propionamide]	1200 nM	13.9 nM	–	–	–
CCCCCCCN(C)c1cccc(C(=O)Nc2cnc3ccccc3c2)c1 [3-(Heptyl-methyl-amino)-N-quinolin-3-yl-benzamide]	8800 nM	142 nM	–	82	–
CCCCCN(C)c1cccc(C(=O)Nc2cnc3ccccc3c2)c1 [3-(Methyl-pentyl-amino)-N-quinolin-3-yl-benzamide]	500 nM	262 nM	–	72	–
O=C(Nc1cnc2ccccc2c1)c1cccc(NC2CCCCC2)c1 [3-Cyclohexylamino-N-quinolin-3-yl-benzamide]	3200 nM	–	–	1	–
CCCCCN(CCCCC)c1cccc(C(=O)Nc2cnc3ccccc3c2)c1 [3-Dipentylamino-N-quinolin-3-yl-benzamide]	–	107 nM	260	93	–
CCCCCCCNc1cccc(C(=O)Nc2cnc3ccccc3c2)c1 [3-Heptylamino-N-quinolin-3-yl-benzamide]	10000 nM	–	–	20	–
O=C(CCc1ccc2c(c1)CCC2)Nc1cnc2ccccc2c1 [3-Indan-5-yl-N-quinolin-3-yl-propionamide]	10000 nM	158 nM	–	–	–
CC1(C)CCC(C)(C)c2cc(C=CC(=O)Nc3cnc4ccccc4c3Cl)ccc21 [N-(4-Chloro-quinolin-3-yl)-3-(5,5,8,8-tetramethyl-5,6,7,8-tetrahydro-naphthalen-2-yl)-acrylamide]	30 nM	–	–	–	–
CN(c1ccc(C(=O)Nc2cnc3ccccc3c2Cl)cc1)C1CCCCC1 [N-(4-Chloro-quinolin-3-yl)-4-(cyclohexyl-methyl-amino)-benzamide]	107 nM	–	–	–	–
CC1(C)CCC(C)(C)c2cc(C=CC(=O)Nc3cnc4ccccc4c3)ccc21 [N-Quinolin-3-yl-3-(5,5,8,8-tetramethyl-5,6,7,8-tetrahydro-naphthalen-2-yl)-acrylamide]	65 nM	–	–	–	–

Reference: patent US8394828B2 (Janssen Pharmaceutica, NV, priority 2003, dated 2013)
